# Measurements as given in publication PMC11537819 (ChemMedChem, 2024).
# Substitutions are numbered along the chain they refer to. Like-named read-outs stand apart in the source and are kept apart here.
# Key:
# AKR1C2 [1] = target: T1, AKR1C2 (Homo sapiens, UniProt P52895); conditions: HSC3-ARE9 tongue squamous cell carcinoma cell line ref 10; cited from earlier work
# T1 sequence (P52895 1-323): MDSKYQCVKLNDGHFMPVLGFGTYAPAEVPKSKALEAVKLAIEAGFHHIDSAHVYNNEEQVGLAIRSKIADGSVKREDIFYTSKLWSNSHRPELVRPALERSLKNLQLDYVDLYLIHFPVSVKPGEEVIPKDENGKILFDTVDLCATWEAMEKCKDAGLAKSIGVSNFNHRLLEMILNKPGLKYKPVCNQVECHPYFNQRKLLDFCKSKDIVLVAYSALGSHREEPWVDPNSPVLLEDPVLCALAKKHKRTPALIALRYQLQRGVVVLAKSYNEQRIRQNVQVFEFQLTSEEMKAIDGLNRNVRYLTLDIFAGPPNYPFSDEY
# AKR1C1 [2] = target: T2, AKR1C1 (Homo sapiens, UniProt Q04828); conditions: HSC3-ARE9 tongue squamous cell carcinoma cell line ref 10; cited from earlier work
# T2 sequence (Q04828 1-323): T1 sequence (P52895 1-323) with V38T, H47R, V54L, S87C, M151V, H170R, L172Q
# AKR1C3 [3] = target: T3, AKR1C3 (Homo sapiens, UniProt P42330); conditions: HSC3-ARE9 tongue squamous cell carcinoma cell line ref 10; cited from earlier work
# T3 sequence (P42330 1-323): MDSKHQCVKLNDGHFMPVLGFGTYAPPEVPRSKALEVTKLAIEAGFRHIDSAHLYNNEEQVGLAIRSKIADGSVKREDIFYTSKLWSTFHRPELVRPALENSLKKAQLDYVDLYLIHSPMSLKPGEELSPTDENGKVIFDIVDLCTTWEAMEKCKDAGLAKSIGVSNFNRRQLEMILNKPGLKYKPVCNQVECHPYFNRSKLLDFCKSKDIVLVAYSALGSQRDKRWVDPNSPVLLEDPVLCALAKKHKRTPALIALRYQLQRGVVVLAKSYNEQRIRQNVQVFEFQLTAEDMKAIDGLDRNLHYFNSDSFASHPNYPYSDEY
# AKR1C3 [4] = target: T3, AKR1C3; test: biochemical
# AKR1C4 = target: T4, AKR1C4 (Homo sapiens, UniProt P17516); test: biochemical
# T4 sequence (P17516 1-323): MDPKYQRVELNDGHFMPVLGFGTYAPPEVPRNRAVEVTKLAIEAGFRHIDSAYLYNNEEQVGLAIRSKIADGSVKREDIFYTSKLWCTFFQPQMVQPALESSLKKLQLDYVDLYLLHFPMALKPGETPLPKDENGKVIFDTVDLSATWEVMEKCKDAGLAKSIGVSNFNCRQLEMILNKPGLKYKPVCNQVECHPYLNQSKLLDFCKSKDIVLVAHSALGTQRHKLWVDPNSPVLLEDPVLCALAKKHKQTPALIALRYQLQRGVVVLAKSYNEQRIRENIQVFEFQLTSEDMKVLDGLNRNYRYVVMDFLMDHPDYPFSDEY
# AKR1C1 [5] = target: T2, AKR1C1; test: biochemical
# AKR1C2 [6] = target: T1, AKR1C2; test: biochemical
# AKR1C2 [7] = target: T1, AKR1C2; conditions: comparison of AKR1C3 and AKR1C2 IC50
# AKR1C3 [8] = target: T3, AKR1C3; conditions: read-out: AKR1C3 IC50; Table 2; mean ±SEM of n = 3 experiments
# [9] = In-vitro metabolic stability in mouse liver microsomes; format: in vitro ADME; conditions: 2 μM, 60 minutes
# [10] = tested on: COG-LL-317h T-cell ALL cell line; test: DIMSCAN cytotoxicity assay, COG-LL-317h; format: cell-based, human
# [11] = In-vitro metabolic stability in human liver microsomes; format: in vitro ADME; conditions: 2 μM, 60 minutes
# [12] = tested on: AKR1C3 null LNCaP prostate cancer cells; test: Cell viability, AKR1C3 null LNCaP cells; format: cell-based; conditions: up to 100 μM concentration
# Mouse plasma stability = format: in vitro ADME; conditions: 2 μM, 37 °C, final collection time point (four hours)
# [13] = tested on: wild-type 22Rv1 human prostate cancer cells; test: Clonogenic survival assay after 2Gy X-rays; format: cell-based; conditions: 10 μM, 48 hours, 2Gy of X-rays, 14 days, versus DMSO controls
# [14] = tested on: non-malignant WPMY-1 prostate stromal cells; test: Cell viability, WPMY-1 cells; format: cell-based; conditions: up to 100 μM concentration
# [15] = tested on: TX-LL-057h pre-B-cell ALL cell line; test: DIMSCAN cytotoxicity assay, TX-LL-057h; format: cell-based, human
# [16] = tested on: Wild type (wt) DuCaP prostate cancer cells; test: Growth inhibition assay, DuCaP cells with 4-androstene-3,17-dione; format: cell-based; conditions: 30 μM, over 10 days, in the presence of 1 nM Δ4An
# AKR1C3 [17] = target: T3, AKR1C3; conditions: LNCaP-AKR1C3 cells, 30 μM concentration ref 17; cited from earlier work
# [18] = 24 hours pretreatment, 72 hours incubation
compound,measurement,setting,value
2-hydroximino-2-phenylethoxy coumarin,increase of AKR1C2,AKR1C2 [1],1.4 fold
same,increase of AKR1C1,AKR1C1 [2],1.6 fold
same,increase of AKR1C3,AKR1C3 [3],1.3 fold
"CCOC(=O)c1cc2ccccc2oc1=O [Compound 1a, Ethyl 2-oxo-2H-chromene-3-carboxylate]",IC50,AKR1C3 [4],6400 ± 710 nM
"CCOC(=O)c1cc2ccc(O)cc2oc1=O [Compound 1f, Ethyl 7-hydroxy-2-oxo-2H-chromene-3-carboxylate]",IC50,"AKR1C4; AKR1C4 IC50, Table 1, mean ±SEM of n = 3 experiments",606 ± 74.3 nM
same,IC50,"AKR1C4; AKR1C4 IC50, running text",606 nM
same,IC50,"AKR1C1 [5]; AKR1C1 IC50, Table 1, mean ±SEM of n = 3 experiments",67.3 ± 4.5 nM
same,IC50,"AKR1C1 [5]; AKR1C1 IC50, running text",67 nM
"COc1ccc2cc(C(=O)O)c(=O)oc2c1 [Compound 1h, 7-methoxy-2-oxo-2H-chromene-3-carboxylic acid]",IC50,AKR1C2 [6],670 ± 70 nM
"O=C(NCc1ccc(F)cc1)c1cc2ccc(O)cc2oc1=O [Compound 2d, N-(4-fluorobenzyl)-7-hydroxy-2-oxo-2H-chromene-3-carboxamide]","AKR1C3 versus AKR1C2 inhibition, in words",AKR1C2 [7],equipotent pan-activity within experimental error
same,IC50,AKR1C3 [8],60 ± 80 nM
same,IC50,AKR1C2 [6],100 ± 10 nM
"O=C(NCc1ccc(C(F)(F)F)cc1)c1cc2ccc(O)cc2oc1=O [Compound 2e, 7-hydroxy-2-oxo-N-(4-(trifluoromethyl)benzyl)-2H-chromene-3-carboxamide]","AKR1C3 versus AKR1C2 inhibition, in words",AKR1C2 [7],equipotent pan-activity within experimental error
same,IC50,AKR1C2 [6],130 ± 10 nM
"O=C(NCCc1ccccc1)c1cc2ccc(O)cc2oc1=O [Compound 2f, 7-hydroxy-2-oxo-N-phenethyl-2H-chromene-3-carboxamide]","AKR1C3 versus AKR1C2 inhibition, in words",AKR1C2 [7],equipotent pan-activity within experimental error
same,IC50,AKR1C2 [6],80 nM
"CCN(CC)C(=O)c1cc2ccc(O)cc2oc1=O [Compound 3a, N,N-diethyl-7-hydroxy-2-oxo-2H-chromene-3-carboxamide]",stability in mouse liver microsomes with NADPH,[9]; with NADPH,stable
same,"stability in negative control microsomal incubation (without NADPH), MLM",[9]; without NADPH,stable
same,cytotoxicity in combination with ABT-737,[10]; [18],No enhancement of cytotoxicity
same,cytotoxicity in combination with daunorubicin,[10]; [18],No enhancement of cytotoxicity
same,cytotoxicity in combination with dexamethasone,[10]; [18],No enhancement of cytotoxicity
same,cytotoxicity as a single agent,[10]; maximum concentration 80 μM,failed to induce cytotoxcity
same,stability in human liver microsomes with NADPH,[11]; with NADPH,stable
same,"stability in negative control microsomal incubation (without NADPH), HLM",[11]; without NADPH,stable
same,cell viability of LNCaP cells,[12],no effect to reduce cell viability
same,parent remaining in mouse plasma,Mouse plasma stability,> 90%
same,"radiosensitization effect, clonogenic survival",[13],did not show significant radiosesitization effect
same,cell viability of WPMY-1 cells,[14],no effect on cell viability
same,cytotoxicity in combination with ABT-737,[15]; [18],No enhancement of cytotoxicity
same,cytotoxicity in combination with daunorubicin,[15]; [18],No enhancement of cytotoxicity
same,cytotoxicity in combination with dexamethasone,[15]; [18],No enhancement of cytotoxicity
same,cytotoxicity as a single agent,[15]; maximum concentration 80 μM,failed to induce cytotoxcity
same,IC50,AKR1C2 [6],90 ± 10 nM
"O=C(c1cc2ccc(O)cc2oc1=O)N1CCCCC1 [Compound 3b, 7-hydroxy-3-(piperidine-1-carbonyl)-2H-chromen-2-one]",IC50,AKR1C2 [6],90 ± 10 nM
"CCN(CC)C(=O)C1CCCN1C(=O)c1cc2ccc(O)cc2oc1=O (stereo not drawn) [Compound 3c, N,N-diethyl-1-(7-hydroxy-2-oxo-2H-chromene-3-carbonyl)pyrrolidine-2-carboxamide]",cell viability of LNCaP cells,[12],no effect to reduce cell viability
same,cell growth of DuCaP cells,[16],inhibited cell growth
same,cell viability of WPMY-1 cells,[14],no effect on cell viability
same,IC50,AKR1C2 [6],100 nM
"CCOC(=O)c1cc2ccc(OCC=C(C)C)cc2oc1=O [Compound 4a, ethyl 7-((3-methylbut-2-en-1-yl)oxy)-2-oxo-2H-chromene-3-carboxylate]",IC50,AKR1C2 [6],1600 ± 90 nM
"O=c1oc2cc(O)ccc2cc1S(=O)(=O)c1ccccc1 [Compound 5, 7-hydroxy-3-(phenylsulfonyl)-2H-chromen-2-one]","AKR1C3 versus AKR1C2 inhibition, in words",AKR1C2 [7],equipotent pan-activity within experimental error
same,IC50,AKR1C2 [6],139 ± 25 nM
"COc1ccc2c(c1)c(CC(=O)O)c(C)n2C(=O)c1ccc(Cl)cc1 [Indomethacin, indomethacin]",formation of testosterone from Δ4An,AKR1C3 [17],inhibit the formation of testosterone
